In PubChem BioAssay (NCI):
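96-well plates; 48 h exposure; 5 concentrations. Endpoints by linear interpolation between flanking doses. Not reached: highest tested concentration assigned. At the TGI there is no net growth.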

How the values were obtained:
Assay in all cases: NCI tumour cell line growth inhibition, 48 h
SK-MEL-2 melanoma = tested on: SK-MEL-2 melanoma
M14 melanoma = tested on: M14 melanoma
RXF 393 renal = tested on: RXF 393 renal
LOX IMVI melanoma = tested on: LOX IMVI melanoma
UO-31 renal = tested on: UO-31 renal
U251 CNS = tested on: U251 CNS
IGROV1 ovarian = tested on: IGROV1 ovarian
SF-268 CNS = tested on: SF-268 CNS
HT29 colon = tested on: HT29 colon
SNB-75 CNS = tested on: SNB-75 CNS
MALME-3M melanoma = tested on: MALME-3M melanoma
NCI/ADR-RES ovarian = tested on: NCI/ADR-RES ovarian
PC-3 prostate = tested on: PC-3 prostate
DU-145 prostate = tested on: DU-145 prostate
MDA-N = tested on: MDA-N
OVCAR-8 ovarian = tested on: OVCAR-8 ovarian
HL-60(TB) leukemia = tested on: HL-60(TB) leukemia
HCT-15 colon = tested on: HCT-15 colon
SK-OV-3 ovarian = tested on: SK-OV-3 ovarian
A498 renal = tested on: A498 renal

Measured: TGI

CCOC(=O)C(=[N+]=[N-])C(=O)CN1C(=O)C2CC(C)=C(C)CC2C1O (stereo unspecified)
not listed: HCT-15 colon | SK-OV-3 ovarian | A498 renal
> 100 µM: all other assays above

COC(=O)C(C(=O)C(=O)Nc1ccccc1C#N)c1nc2ccc([N+](=O)[O-])cc2[nH]c1=O (stereo unspecified)
not listed: HL-60(TB) leukemia | A498 renal
> 100 µM: all other assays above

CC(C)OP(=O)(OC(C)C)c1ccc2c(c1)OCCOCCOCCOCCO2
not listed: SK-MEL-2 melanoma | RXF 393 renal | U251 CNS | NCI/ADR-RES ovarian
> 100 µM: all other assays above

CCCCc1ccc(-n2sc3ncc([N+](=O)[O-])cc3c2=O)cc1
37.1 µM: SF-268 CNS
35.5 µM: UO-31 renal
26.1 µM: LOX IMVI melanoma
26.7 µM: HT29 colon
28.4 µM: HCT-15 colon
57.2 µM: SNB-75 CNS
61 µM: OVCAR-8 ovarian
18.7 µM: PC-3 prostate
29.1 µM: U251 CNS
28 µM: MDA-N
57.9 µM: DU-145 prostate
43.7 µM: M14 melanoma
28.1 µM: IGROV1 ovarian
> 100 µM: SK-OV-3 ovarian
21.7 µM: MALME-3M melanoma
38 µM: HL-60(TB) leukemia
34.4 µM: NCI/ADR-RES ovarian
7.43 µM: SK-MEL-2 melanoma

Cc1nc2c(cc1C(=O)N/N=C/c1ccc([N+](=O)[O-])cc1)c(=O)n(C)c(=O)n2C
57 µM: U251 CNS
65 µM: RXF 393 renal
not listed: LOX IMVI melanoma | A498 renal
> 100 µM: all other assays above

CCOC(=O)/C(N=Nc1ccc(-n2c(C)nc3ccc(Br)cc3c2=O)cc1)=C(/C)O
86.7 µM: SNB-75 CNS
not listed: RXF 393 renal | MALME-3M melanoma
> 100 µM: all other assays above

COc1cc2c(cc1OC)CN1CCCc3cc(OC)c(OC)cc3C1C2 (stereo unspecified)
52 µM: SNB-75 CNS
94.4 µM: RXF 393 renal
61.7 µM: HT29 colon
42.4 µM: MDA-N
not listed: SK-MEL-2 melanoma | HL-60(TB) leukemia | A498 renal
> 100 µM: all other assays above

S=C(N/N=C/c1ccccn1)Nc1ccc(Cl)cc1
> 45.7 µM: SF-268 CNS
8.3 µM: U251 CNS
> 42.8 µM: OVCAR-8 ovarian
> 29 µM: MALME-3M melanoma
1.09 µM: UO-31 renal
8.74 µM: SNB-75 CNS
25.6 µM: IGROV1 ovarian
59.9 µM: A498 renal
0.0796 µM: HL-60(TB) leukemia
10.5 µM: SK-OV-3 ovarian
> 35.3 µM: LOX IMVI melanoma
not listed: M14 melanoma | RXF 393 renal | NCI/ADR-RES ovarian
> 100 µM: all other assays above

COc1cc(CNC2=NCCC2)cc(OC)c1OC
not listed: SK-MEL-2 melanoma | LOX IMVI melanoma | A498 renal
> 100 µM: all other assays above

O=c1oc2ccccc2c(O)c1/C=N/C(=S)NCc1ccccc1
not listed: RXF 393 renal | SF-268 CNS | MALME-3M melanoma | A498 renal
> 100 µM: all other assays above

Cc1ccc(S(=O)(=O)N2c3ccccc3[C@H]3CCC=C[C@H]32)cc1
> 88.5 µM: OVCAR-8 ovarian
19.2 µM: HT29 colon
56.5 µM: LOX IMVI melanoma
> 69.1 µM: HCT-15 colon
> 76.1 µM: SF-268 CNS
39 µM: MALME-3M melanoma
27.2 µM: U251 CNS
19 µM: RXF 393 renal
28.8 µM: HL-60(TB) leukemia
34.9 µM: UO-31 renal
43.3 µM: M14 melanoma
28.6 µM: SK-OV-3 ovarian
46.2 µM: A498 renal
39.2 µM: SK-MEL-2 melanoma
42.5 µM: SNB-75 CNS
not listed: NCI/ADR-RES ovarian
> 100 µM: all other assays above
